Experimental data from publication PMC3845904 (Chemical research in toxicology, 2009).

Assays:
[1] = target: T1, human P450 1B1 (Homo sapiens, UniProt Q16678); assay: Spectral binding titration; conditions: for Reverse Type I spectra ΔAmax/Ks (magnitude of spectral binding) / Reverse Type I spectra ΔAmax: purified P450 1B1 1.0 μM, ND = not detected at 100 μM; for Reverse Type I spectra ΔAmax: means ± SEs
T1 sequence (Q16678 1-543): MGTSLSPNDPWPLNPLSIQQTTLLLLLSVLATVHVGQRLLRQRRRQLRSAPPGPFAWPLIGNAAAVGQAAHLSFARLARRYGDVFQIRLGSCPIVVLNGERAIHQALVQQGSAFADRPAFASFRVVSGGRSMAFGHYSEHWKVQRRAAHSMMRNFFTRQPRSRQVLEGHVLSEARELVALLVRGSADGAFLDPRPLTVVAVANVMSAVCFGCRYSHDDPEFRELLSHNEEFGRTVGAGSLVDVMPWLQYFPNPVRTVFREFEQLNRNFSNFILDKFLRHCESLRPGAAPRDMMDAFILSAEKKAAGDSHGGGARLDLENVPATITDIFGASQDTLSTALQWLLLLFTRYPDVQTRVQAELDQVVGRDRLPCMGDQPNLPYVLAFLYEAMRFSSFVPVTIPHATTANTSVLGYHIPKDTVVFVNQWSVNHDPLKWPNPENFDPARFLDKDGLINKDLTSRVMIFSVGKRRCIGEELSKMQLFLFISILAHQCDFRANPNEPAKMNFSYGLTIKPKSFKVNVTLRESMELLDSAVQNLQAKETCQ

[2] = target: T1, human P450 1B1; assay: biochemical

Row | SMILES | Reverse Type I spectra ΔAmax/Ks (magnitude of spectral binding) [1] | Reverse Type I spectra ΔAmax [1] | Reverse Type I spectra ΔAmax ([1]; listed as Flavone) | IC50 [2] | spectral interaction with P450 1B1 (in words) ([1]; up to 100 μM) | Kd [1]
1 | COc1cc(C=Cc2ccc(OC)cc2OC)cc(OC)c1 [TMS, 2,4,3′,5′-tetramethoxystilbene, reference compound] | 0.0110 |  |  |  |  | 
2 | O=c1cc(-c2ccccc2)oc2ccccc12 [flavone, reference compound] | 0.0006 | 0.026 ± 0.002 | 0.026 |  |  | 
3 | CC#Cc1ccc2ccc3cccc4ccc1c2c34 [1PP, 1-(1-propynyl)pyrene] | 0.0156 | 0.042 ± 0.002 |  | 0.045 ± 0.005 µM |  | 
4 | COc1ccccc1-c1cc(=O)c2ccc(O)c(O)c2o1 [2M78DHF, 2′-methoxy-7,8-dihydroxyflavone] |  |  |  | > 100 µM | did not show any detectable spectral interaction | 
5 | O=c1cc(-c2ccccc2)oc2c1ccc1ccccc12 [ANF, α-naphthoflavone, reference compound] | 0.0061 | 0.073 ± 0.007 |  |  |  | 
6 | C=Cc1ccc2ccc3cccc4ccc1c2c34 [1VP, 1-vinylpyrene] | 0.0209 | 0.092 ± 0.003 |  | 0.15 ± 0.02 µM |  | 4.4 ± 0.3 µM
7 | COc1ccc(-c2cc(=O)c3ccc(O)c(O)c3o2)cc1OC [34DM78DHF, 3′,4′-dimethoxy-7,8-dihydroxyflavone] | 0.0003 | 0.053 ± 0.003 |  | 19 ± 2.3 µM |  | 190 ± 17 µM
8 | C#Cc1ccc2ccccc2c1 [2EN, 2-ethynylnaphthalene] | 0.0033 | 0.049 ± 0.002 |  | 1.2 ± 0.2 µM |  | 
9 | C#CCOc1ccccc1-c1ccccc1OCC#C [22BDPE, 2,2-biphenyl dipropagyl ether] | 0.0006 | 0.018 ± 0.001 |  |  |  | 
10 | COc1ccc(-c2cc(=O)c3ccc(O)c(O)c3o2)cc1 [4M78DHF] | 0.0013 | 0.073 ± 0.009 |  | 1.1 ± 0.2 µM |  | 56 ± 15 µM
11 | c1cc2ccc3cccc4ccc(c1)c2c34 [pyrene, reference compound] | 0.0338 | 0.044 ± 0.001 |  | 0.025 ± 0.003 µM |  | 1.3 ± 0.1 µM
12 | Oc1cc(O)cc(/C=C/c2ccc(O)c(O)c2)c1 [Piceatannol (Pice), Piceatannol, reference compound] | 0.0016 | 0.034 ± 0.001 |  | 0.83 ± 0.14 µM |  | 21 ± 1.1 µM
13 | C#CCOc1ccc(-c2ccc(OCC#C)cc2)cc1 [44BDPE, 4,4-biphenyl dipropargyl ether] | 0.0013 | 0.031 ± 0.002 |  |  |  | 
14 | C#Cc1cc2cccc3ccc4cccc1c4c32 [4EP, 4-ethynylpyrene] | 0.0130 | 0.052 ± 0.004 |  | 0.17 ± 0.03 µM |  | 
15 | COc1ccccc1-c1cc(=O)c2c(O)cc(O)cc2o1 [2M57DHF, 2′-methoxy-5,7-dihydroxyflavone] | 0.0016 | 0.100 ± 0.011 |  | 0.24 ± 0.02 µM |  | 64 ± 10 µM
16 | C#CCOCc1ccc(-c2ccccc2)cc1 [4BMPE, 4-biphenyl methyl propargyl ether] | 0.0055 | 0.071 ± 0.002 |  |  |  | 
17 | COc1ccccc1-c1cc(=O)c2ccccc2o1 [2MF, 2′-methoxyflavone] | 0.0013 | 0.070 ± 0.005 |  | 0.32 ± 0.06 µM |  | 56 ± 8 µM
18 | COc1cccc(-c2cc(=O)c3c(O)cc(O)cc3o2)c1 [3M57DHF, 3′-methoxy-5,7-dihydroxyflavone] | 0.0037 | 0.075 ± 0.008 |  | 0.11 ± 0.02 µM |  | 20 ± 3 µM
19 | C[C@]12CC[C@@H]3c4ccc(O)cc4CC[C@H]3[C@@H]1CC[C@@H]2O [E2, 17β-estradiol, reference compound] | 0.0005 | 0.039 ± 0.007 |  |  |  | 
20 | C#Cc1cc2ccccc2c2ccccc12 [9EPh, 9-ethynylphenanthrene] | 0.0197 | 0.071 ± 0.004 |  | 0.12 ± 0.01 µM |  | 
21 | C#Cc1ccc2c(ccc3ccccc32)c1 [2EPh, 2-ethynylphenanthrene] | 0.0190 | 0.080 ± 0.004 |  | 0.21 ± 0.03 µM |  | 
22 | O=c1cc(-c2ccccc2)oc2ccc3ccccc3c12 [BNF, β–naphthoflavone, reference compound] | 0.0061 | 0.079 ± 0.009 |  | 0.0041 ± 0.0004 µM |  | 13 ± 1.2 µM
23 | COc1ccc(-c2cc(=O)c3ccccc3o2)cc1OC [34DMF, 3′,4′-dimethoxyflavone] | 0.0021 | 0.051 ± 0.003 |  | 0.26 ± 0.03 µM |  | 24 ± 3.2 µM
24 | COc1ccc(-c2cc(=O)c3c(O)cc(O)cc3o2)cc1OC [34DM57DHF, 3′,4′-dimethoxy-5,7-dihydroxyflavone] | 0.0180 | 0.037 ± 0.002 |  |  |  | 2 ± 0.3 µM
25 | C#Cc1cc2ccc3cccc4ccc(c1)c2c34 [2EP, 2-ethynylpyrene] | 0.0209 | 0.071 ± 0.001 |  | 0.038 ± 0.004 µM |  | 
26 | C#CCOc1ccccc1-c1ccccc1 [2BPE, 2-biphenyl propargyl ether] | 0.0010 | 0.110 ± 0.009 |  |  |  | 
27 | C#CCOc1ccc(-c2ccccc2)cc1 [4BPE, 4-biphenyl propargyl ether] | 0.0007 | 0.056 ± 0.010 |  |  |  | 
28 | C#CCOCc1ccccc1-c1ccccc1 [2BMPE, 2-biphenyl methyl propargyl ether] | 0.0009 | 0.130 ± 0.009 |  |  |  | 
